Experimental data from patent US8404681B2, “Xanthones, thioxanthones and acridinones as DNA-PK inhibitors” (Luitpold Pharmaceuticals, Inc., priority 2003, dated 2013).

Experiments:
DNA-PK = target: T1, DNA-PK (Homo sapiens, UniProt P78527); experiment: Standard DNA-PK assay (phosphorylation of p53 peptide substrate); type: biochemical; details: purified human DNA-PK, 50 μM ATP, room temperature, read-out: IC50 (inhibition of DNA-PK enzyme activity)
T1 construct: HeLa S3 cells (ATCC CCL-2.2; Batch F12594) were raised in MEM-Joklik media; endogenous in cells; host or cells: HeLa S3 cells (ATCC CCL-2.2); Endogenous enzyme purified in house: S100-2 fraction, then Q-Sepharose FF, then SP-Sepharose FF, giving fraction IV
Experimental: Reactions were carried out at room temperature. Reactions were started by addition of ATP and stopped by application to phosphocellulose paper. Reaction products spotted onto phosphocellulose paper were washed five times with a total volume of at least 250 mL 10% acetic acid or 150 mM phosphoric acid. The paper was air dried and radioactivity was determined in a Beckman LS6000IC scintillation counter.

[1] = test system: human colorectal carcinoma cell line, HCT-116; experiment: Radiation enhancement cellular proliferation assay (3H thymidine incorporation); type: cell-based; details: HCT-116 cells, γ-radiation at doses up to 800 rads
Experimental: To measure the ability of present DNA-PK inhibitor compounds to enhance the toxic effect of radiation treatment, the human colorectal carcinoma cell line, HCT-116, was incubated with inhibitor compounds at concentrations up to 50 μM and treated with γ-radiation at doses up to 800 rads. Cells were maintained in RPMI 1640 (Gibco) containing 10% […], 1 mM sodium pyruvate, 2 mM L-glutamine, 100 U/mL penicillin, and 100 μg/mL streptomycin at 37° C. with 5% CO2 in a humidified incubator. Cultured cells were trypsinized, counted, and seeded into 96 well plates at a concentration of 1000 cells/well. Cells were incubated with varying concentrations of the inhibitor compounds from 1.8 μM to 50 μM for 10 hr or 5 days, then the media-containing compounds were removed and replaced With fresh media without drug. After five days, ^3H thymidine (1 μCi/well) was added to each well and incubated for an additional 20 hr. The plates were frozen at −70° C. for at least 2 hr and thawed at 37° C. to lyse the cells. DNA was harvested onto glass fiber filters and ^3H thymidine incorporation determined with a Packard Matrix 96 direct beta counter. Compound dependent potentiation of radiation induced cell killing was determined by comparing the effect of radiation alone and radiation plus inhibitor compound.

[2] = test system: MDA-MB231 (human breast carcinoma) cells; experiment: DNA double-strand break repair assay (pulse field gel electrophoresis after irradiation); type: cell-based; details: 25 Gy, at concentrations which enhanced radiation induced cell killing
Experimental: To further determine the cellular effect of DNA-PK inhibitors, an assay to measure chromosomal discontinuities was employed. Ionizing radiation induces chromosomal DNA double-strand breaks. Following high dose radiation, chromosomes can be extracted from cells and fractionated by pulse field electrophoresis to distinguish chromosomal fragments from intact larger chromosomes. Using this technique, the activity of DNA-PK inhibitors was measured.
MDA-MB231 (human breast carcinoma) cells were seeded onto T25 flasks with RPMI1640+10% FBS, 2 mM L-glutamine, penicillin G 100 U/ml-streptomycin sulfate 10 μg/ml, 1 mM Na pyruvate. When confluent, media was removed and replaced with media containing DNA-PK inhibitor or vehicle. Cells were incubated at 37° C. for 1 hr in a humidified chamber with 5% CO2. Media then was removed and flasks were filled with ice-cold D-PBS and either: (a) processed immediately; (b) irradiated (25 Gy in a ^137Cs Mark I irradiator at a flux of 335 rad/min) and processed immediately; (c) irradiated and incubated for 2 hr in complete RPMI1640+vehicle at 37° C. (in humidified 5% CO2 atmosphere to allow for DNA repair), or (d) irradiated and incubated for 2 hr in complete RPMI1640+DNA-PK inhibitor compound. […] Chromosomal DNA was visualized with SYBR-Gold (Molecular probes #S-11494) and the fluorescent image quantified on the STORM 860 (Molecular Dynamics).

O=c1c2ccccc2n(Cc2ccccc2)c2cc(N3CCOCC3)cc(O)c12 [Example 28, 10-Benzyl-1-hydroxy-3-morpholin-4-yl-10H-acridin-9-one]
IC50 (DNA-PK): 0.02 µM | concentration that enhanced radiation induced cell killing 2-fold [1]: 17.5 µM | DNA double-strand break repair [2]: inhibited DNA double-strand break repair
